Results from patent publication US20250243196A1, “CITRON KINASE INHIBITORS” (The Cleveland Clinic Foundation, priority 2021, published 2025).

Key:
Format in all cases: biochemical
ROCK-II(h) = ROCK-II(h) (Homo sapiens (Human), UniProt O75116); assay: KinaseProfiler panel; design: dose or concentration left out as unconfirmed; conditions: activity remaining
MAK(h) = MAK(h) (Homo sapiens (Human), UniProt P20794); assay: KinaseProfiler panel; design: dose or concentration left out as unconfirmed; conditions: activity remaining
Lck(h) activated = Lck(h) activated (Homo sapiens (Human), UniProt P06239); assay: KinaseProfiler panel; design: dose or concentration left out as unconfirmed; conditions: activity remaining
Pim-1(h) = Pim-1(h) (Homo sapiens (Human), UniProt P11309); assay: KinaseProfiler panel; design: dose or concentration left out as unconfirmed; conditions: activity remaining
TLK1(h) = TLK1(h) (Homo sapiens (Human), UniProt Q9UKI8); assay: KinaseProfiler panel; conditions: activity remaining
TLK1(h), sequence (Q9UKI8 whole entry): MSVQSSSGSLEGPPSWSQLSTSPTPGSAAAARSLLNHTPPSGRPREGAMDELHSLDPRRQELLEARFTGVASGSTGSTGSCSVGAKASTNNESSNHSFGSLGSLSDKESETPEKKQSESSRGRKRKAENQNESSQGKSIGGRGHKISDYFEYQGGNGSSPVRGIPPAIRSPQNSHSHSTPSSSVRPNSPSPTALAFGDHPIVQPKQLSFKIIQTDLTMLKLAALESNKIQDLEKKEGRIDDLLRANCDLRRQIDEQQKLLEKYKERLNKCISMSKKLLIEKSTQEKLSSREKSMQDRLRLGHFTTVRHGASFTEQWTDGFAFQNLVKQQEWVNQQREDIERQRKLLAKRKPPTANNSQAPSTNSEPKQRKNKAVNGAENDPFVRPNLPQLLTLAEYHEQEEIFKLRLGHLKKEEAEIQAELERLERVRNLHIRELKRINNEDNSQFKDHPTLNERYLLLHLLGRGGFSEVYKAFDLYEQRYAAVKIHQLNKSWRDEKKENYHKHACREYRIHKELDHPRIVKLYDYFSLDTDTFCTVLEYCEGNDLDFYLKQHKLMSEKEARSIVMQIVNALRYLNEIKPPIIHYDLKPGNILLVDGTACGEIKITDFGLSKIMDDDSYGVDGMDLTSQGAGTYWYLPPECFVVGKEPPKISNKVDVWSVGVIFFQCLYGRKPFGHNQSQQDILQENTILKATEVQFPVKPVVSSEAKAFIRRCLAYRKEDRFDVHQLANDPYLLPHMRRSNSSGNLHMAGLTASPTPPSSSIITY

NEK2(h) = NEK2(h) (Homo sapiens (Human), UniProt P51955); assay: KinaseProfiler panel; design: dose or concentration left out as unconfirmed; conditions: activity remaining
FGFR1(h) = FGFR1(h) (Homo sapiens (Human), UniProt P11362); assay: KinaseProfiler panel; design: dose or concentration left out as unconfirmed; conditions: activity remaining
TAF1L(h) = TAF1L(h) (Homo sapiens (Human), UniProt Q8IZX4); assay: KinaseProfiler panel; design: dose or concentration left out as unconfirmed; conditions: activity remaining
TAF1L(h), sequence (Q8IZX4 whole entry): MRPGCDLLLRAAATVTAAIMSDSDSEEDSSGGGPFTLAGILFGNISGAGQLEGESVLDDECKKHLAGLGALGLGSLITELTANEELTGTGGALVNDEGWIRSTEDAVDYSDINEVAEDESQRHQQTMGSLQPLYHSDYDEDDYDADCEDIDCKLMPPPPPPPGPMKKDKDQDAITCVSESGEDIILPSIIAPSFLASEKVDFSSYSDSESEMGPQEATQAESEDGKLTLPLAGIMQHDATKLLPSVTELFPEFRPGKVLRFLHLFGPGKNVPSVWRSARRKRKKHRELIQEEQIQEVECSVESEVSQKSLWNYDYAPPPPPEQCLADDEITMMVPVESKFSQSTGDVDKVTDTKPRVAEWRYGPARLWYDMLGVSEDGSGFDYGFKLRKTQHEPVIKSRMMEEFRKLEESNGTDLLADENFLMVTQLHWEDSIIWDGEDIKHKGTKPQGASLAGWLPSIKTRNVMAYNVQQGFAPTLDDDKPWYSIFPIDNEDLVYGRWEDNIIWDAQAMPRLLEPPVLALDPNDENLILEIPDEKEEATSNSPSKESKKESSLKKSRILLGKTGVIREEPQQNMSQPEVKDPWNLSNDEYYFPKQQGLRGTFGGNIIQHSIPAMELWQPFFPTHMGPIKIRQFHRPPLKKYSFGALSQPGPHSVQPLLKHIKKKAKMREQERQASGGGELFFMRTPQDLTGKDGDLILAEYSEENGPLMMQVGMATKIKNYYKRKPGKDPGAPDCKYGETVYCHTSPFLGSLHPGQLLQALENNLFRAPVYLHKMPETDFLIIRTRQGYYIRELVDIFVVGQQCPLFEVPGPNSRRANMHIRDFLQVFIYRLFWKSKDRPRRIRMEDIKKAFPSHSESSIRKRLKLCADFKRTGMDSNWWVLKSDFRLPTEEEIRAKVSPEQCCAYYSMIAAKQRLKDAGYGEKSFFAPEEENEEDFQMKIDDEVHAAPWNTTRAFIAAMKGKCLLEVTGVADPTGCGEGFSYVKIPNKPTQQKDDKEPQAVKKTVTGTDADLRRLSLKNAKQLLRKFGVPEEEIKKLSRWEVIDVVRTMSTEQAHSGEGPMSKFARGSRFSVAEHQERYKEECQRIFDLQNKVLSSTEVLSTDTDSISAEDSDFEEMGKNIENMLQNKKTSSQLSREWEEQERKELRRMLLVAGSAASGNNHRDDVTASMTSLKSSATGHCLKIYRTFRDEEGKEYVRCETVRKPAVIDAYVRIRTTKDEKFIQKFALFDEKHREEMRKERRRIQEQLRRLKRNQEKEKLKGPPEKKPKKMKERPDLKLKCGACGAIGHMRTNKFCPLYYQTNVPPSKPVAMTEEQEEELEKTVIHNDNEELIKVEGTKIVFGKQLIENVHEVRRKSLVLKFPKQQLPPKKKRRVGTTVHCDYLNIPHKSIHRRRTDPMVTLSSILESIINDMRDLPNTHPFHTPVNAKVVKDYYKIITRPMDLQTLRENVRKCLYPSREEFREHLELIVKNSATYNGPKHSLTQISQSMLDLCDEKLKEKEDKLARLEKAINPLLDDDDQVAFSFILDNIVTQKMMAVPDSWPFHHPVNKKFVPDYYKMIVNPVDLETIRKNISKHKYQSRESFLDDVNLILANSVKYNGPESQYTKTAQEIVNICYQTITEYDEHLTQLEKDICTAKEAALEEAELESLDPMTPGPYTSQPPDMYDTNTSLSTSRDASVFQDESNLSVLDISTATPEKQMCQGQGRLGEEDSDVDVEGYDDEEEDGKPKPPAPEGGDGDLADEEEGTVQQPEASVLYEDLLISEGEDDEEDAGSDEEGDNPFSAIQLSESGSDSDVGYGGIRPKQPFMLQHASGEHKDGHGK

STK16(h) = STK16(h) (Homo sapiens (Human), UniProt O75716); assay: KinaseProfiler panel; design: dose or concentration left out as unconfirmed; conditions: activity remaining
Citron kinase = Citron kinase (Homo sapiens (Human), UniProt O14578); assay: Radiometric citron kinase assay (Eurofins Cat #16-040KP); conditions: mean of at least two independent assays; read-out: Radiometric CitK IC50
Outline: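 Radiometric KinaseProfiler format: test compound incubated with kinase, substrate, cofactors and radiolabelled ATP; unreacted ATP washed away and radiolabelled phosphate incorporated into substrate measured. IC50 derived from inhibition of phosphorylation. Values are means of at least two independent assays.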

CDK4/cyclinD3(h) = CDK4/cyclinD3(h) (Homo sapiens (Human), UniProt P11802); assay: KinaseProfiler panel; design: dose or concentration left out as unconfirmed; conditions: activity remaining
STK32A(h) = STK32A(h) (Homo sapiens (Human), UniProt Q8WU08); assay: KinaseProfiler panel; design: dose or concentration left out as unconfirmed; conditions: activity remaining
STK32A(h), sequence (Q8WU08 whole entry): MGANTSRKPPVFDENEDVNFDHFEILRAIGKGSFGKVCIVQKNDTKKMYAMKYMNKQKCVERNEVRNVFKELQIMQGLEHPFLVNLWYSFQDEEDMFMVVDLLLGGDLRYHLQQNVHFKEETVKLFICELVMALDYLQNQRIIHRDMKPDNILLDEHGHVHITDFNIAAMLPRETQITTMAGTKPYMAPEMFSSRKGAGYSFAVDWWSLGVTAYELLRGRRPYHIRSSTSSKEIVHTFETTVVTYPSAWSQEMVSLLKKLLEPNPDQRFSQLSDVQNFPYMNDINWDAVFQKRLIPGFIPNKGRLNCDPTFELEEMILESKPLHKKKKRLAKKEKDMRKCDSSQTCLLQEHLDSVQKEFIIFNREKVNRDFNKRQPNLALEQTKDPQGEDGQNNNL

TGFBR1(h) = TGFBR1(h) (Homo sapiens (Human), UniProt P36897); assay: KinaseProfiler panel; design: dose or concentration left out as unconfirmed; conditions: activity remaining
Haspin(h) = Haspin(h) (Homo sapiens (Human), UniProt Q8TF76); assay: KinaseProfiler panel; design: dose or concentration left out as unconfirmed; conditions: activity remaining
CLK1(h) = CLK1(h) (Homo sapiens (Human), UniProt P49759); assay: KinaseProfiler panel; design: dose or concentration left out as unconfirmed; conditions: activity remaining
Hck(h) = Hck(h) (Homo sapiens (Human), UniProt P08631); assay: KinaseProfiler panel; design: dose or concentration left out as unconfirmed; conditions: activity remaining
EphA8(h) = EphA8(h) (Homo sapiens (Human), UniProt P29322); assay: KinaseProfiler panel; design: dose or concentration left out as unconfirmed; conditions: activity remaining
TTK(h) = TTK(h) (Homo sapiens (Human), UniProt P33981); assay: KinaseProfiler panel; design: dose or concentration left out as unconfirmed; conditions: activity remaining
PKA(h) = PKA(h) (Homo sapiens (Human), UniProt P17612); assay: KinaseProfiler panel; design: dose or concentration left out as unconfirmed; conditions: activity remaining
MST4(h) = MST4(h) (Homo sapiens (Human), UniProt Q9P289); assay: KinaseProfiler panel; design: dose or concentration left out as unconfirmed; conditions: activity remaining
PKR(h) = PKR(h) (Homo sapiens (Human), UniProt P19525); assay: KinaseProfiler panel; design: dose or concentration left out as unconfirmed; conditions: activity remaining
TAK1(h) = TAK1(h) (Homo sapiens (Human), UniProt O43318); assay: KinaseProfiler panel; design: dose or concentration left out as unconfirmed; conditions: activity remaining
SRPK2(h) = SRPK2(h) (Homo sapiens (Human), UniProt P78362); assay: KinaseProfiler panel; design: dose or concentration left out as unconfirmed; conditions: activity remaining
EphB2(h) = EphB2(h) (Homo sapiens (Human), UniProt P29323); assay: KinaseProfiler panel; design: dose or concentration left out as unconfirmed; conditions: activity remaining
ALK2(h) = ALK2(h) (Homo sapiens (Human), UniProt Q04771); assay: KinaseProfiler panel; design: dose or concentration left out as unconfirmed; conditions: activity remaining
ALK2(h), sequence (Q04771 21-509): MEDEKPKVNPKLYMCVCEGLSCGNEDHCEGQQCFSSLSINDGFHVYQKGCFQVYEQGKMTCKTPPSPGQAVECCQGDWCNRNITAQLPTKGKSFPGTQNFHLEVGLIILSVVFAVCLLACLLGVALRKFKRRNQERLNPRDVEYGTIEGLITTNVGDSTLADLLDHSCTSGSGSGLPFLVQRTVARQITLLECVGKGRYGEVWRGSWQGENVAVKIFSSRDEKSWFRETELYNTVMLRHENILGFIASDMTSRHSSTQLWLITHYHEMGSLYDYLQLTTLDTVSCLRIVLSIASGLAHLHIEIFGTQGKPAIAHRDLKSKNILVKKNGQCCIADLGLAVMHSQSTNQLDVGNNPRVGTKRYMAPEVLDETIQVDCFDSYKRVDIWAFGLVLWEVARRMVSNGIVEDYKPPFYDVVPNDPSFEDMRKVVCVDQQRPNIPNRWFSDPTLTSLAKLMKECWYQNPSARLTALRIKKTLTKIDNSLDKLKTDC

ULK1(h) = ULK1(h) (Homo sapiens (Human), UniProt O75385); assay: KinaseProfiler panel; design: dose or concentration left out as unconfirmed; conditions: activity remaining
ErbB2(h) = ErbB2(h) (Homo sapiens (Human), UniProt P04626); assay: KinaseProfiler panel; design: dose or concentration left out as unconfirmed; conditions: activity remaining

ROCK-II(h), sequence (O75116 whole entry): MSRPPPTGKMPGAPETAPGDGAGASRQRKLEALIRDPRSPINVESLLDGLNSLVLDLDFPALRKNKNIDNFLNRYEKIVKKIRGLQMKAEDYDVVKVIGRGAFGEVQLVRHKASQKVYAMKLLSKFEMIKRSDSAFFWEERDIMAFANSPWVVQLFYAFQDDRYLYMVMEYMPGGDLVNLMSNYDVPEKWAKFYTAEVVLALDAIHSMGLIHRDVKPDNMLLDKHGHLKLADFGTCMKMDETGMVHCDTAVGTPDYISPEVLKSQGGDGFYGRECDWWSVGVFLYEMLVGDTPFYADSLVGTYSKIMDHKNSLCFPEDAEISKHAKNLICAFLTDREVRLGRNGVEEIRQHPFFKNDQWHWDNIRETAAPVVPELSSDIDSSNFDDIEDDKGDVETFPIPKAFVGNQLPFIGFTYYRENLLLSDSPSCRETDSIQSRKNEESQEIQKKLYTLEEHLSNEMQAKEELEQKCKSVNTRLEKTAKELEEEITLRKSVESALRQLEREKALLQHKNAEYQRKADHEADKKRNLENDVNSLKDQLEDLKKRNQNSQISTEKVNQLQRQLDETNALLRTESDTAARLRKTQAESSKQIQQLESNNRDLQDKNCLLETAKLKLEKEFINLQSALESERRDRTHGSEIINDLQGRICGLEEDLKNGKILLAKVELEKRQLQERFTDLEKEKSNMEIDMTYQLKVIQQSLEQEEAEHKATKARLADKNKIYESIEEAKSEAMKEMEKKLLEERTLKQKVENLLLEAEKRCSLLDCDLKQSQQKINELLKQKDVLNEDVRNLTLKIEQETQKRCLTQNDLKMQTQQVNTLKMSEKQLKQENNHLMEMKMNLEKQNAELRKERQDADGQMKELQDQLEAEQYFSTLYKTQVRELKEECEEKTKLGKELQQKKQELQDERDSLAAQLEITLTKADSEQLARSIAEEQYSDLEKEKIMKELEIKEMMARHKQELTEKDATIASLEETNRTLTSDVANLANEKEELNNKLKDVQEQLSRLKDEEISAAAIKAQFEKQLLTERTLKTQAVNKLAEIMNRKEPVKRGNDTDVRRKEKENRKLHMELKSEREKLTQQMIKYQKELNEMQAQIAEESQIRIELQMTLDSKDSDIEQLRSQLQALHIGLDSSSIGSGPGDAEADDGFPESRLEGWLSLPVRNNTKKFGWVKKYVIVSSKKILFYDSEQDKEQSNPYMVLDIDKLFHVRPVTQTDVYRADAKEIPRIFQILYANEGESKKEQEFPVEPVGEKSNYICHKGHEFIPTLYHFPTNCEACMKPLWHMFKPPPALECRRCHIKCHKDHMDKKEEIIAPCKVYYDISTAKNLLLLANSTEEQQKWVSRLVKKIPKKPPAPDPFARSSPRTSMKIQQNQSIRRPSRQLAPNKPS

For Cc1cc2c(-c3ccc(NC(=O)[C@H](N)CC(C)(C)C)cc3C)ccnc2[nH]1 [Compound F-90, (2R)-2-Amino-4,4-dimethyl-N-[3-methyl-4-(2-methyl-1H-pyrrolo[2,3-b]pyridin-4-yl)phenyl]pentanamide], the “% Activity” value (ROCK-II(h)) was 96%, the “% Activity” value (MAK(h)) was 120% and the “% Activity” value (Lck(h) activated) was 119%. The “% Activity” value (Pim-1(h)) was 95%, the “% Activity” value (TLK1(h)) was 82% and the “% Activity” value (NEK2(h)) was 118%. The “% Activity” value (FGFR1(h)) was 100%, the “% Activity” value (TAF1L(h)) was 101% and the “% Activity” value (STK16(h)) was 94%. For the same molecule, the IC50 (Citron kinase) was 0.012 µM, the “% Activity” value (CDK4/cyclinD3(h)) was 74% and the “% Activity” value (STK32A(h)) was 90%. The “% Activity” value (TGFBR1(h)) was 103%, the “% Activity” value (Haspin(h)) was 140% and the “% Activity” value (CLK1(h)) was 88%. For the same molecule, the “% Activity” value (Hck(h)) was 99%, the “% Activity” value (EphA8(h)) was 115% and the “% Activity” value (TTK(h)) was 102%. The “% Activity” value (PKA(h)) was 109%, the “% Activity” value (MST4(h)) was 106% and the “% Activity” value (PKR(h)) was 85%. For the same molecule, the “% Activity” value (TAK1(h)) was 91%, the “% Activity” value (SRPK2(h)) was 93% and the “% Activity” value (EphB2(h)) was 96%. The “% Activity” value (ALK2(h)) was 122%, the “% Activity” value (ULK1(h)) was 95% and the “% Activity” value (ErbB2(h)) was 97%.
